Experimental data published in patent US20070154567A1, “Use of mercury to treat cancer” (priority 2006, published 2007).
Values joined by “and” are separate entries in the source; they are usually repeats but may differ in a detail not shown here. Identical values can stand only once.

Test system: metastatic hepatocellular carcinoma
Experiment: Oral inorganic mercury (II) treatment of a pet Husky after tumor removal: blood data and clinical follow-up
Type: in vivo, dog
Parameters: Corrected Calcium / MCV / MCH / MCHC / Neutrophils, absolute / Bands / Lymphocytes, absolute / Monocytes, absolute / Eosinophils, absolute / Basophils, absolute: unit not given here
Method: A 10 yrs old female Husky, 54 lbs was diagnosed with metastatic hepatocellular carcinoma. The tumor was surgically removed prior to treatment. The prognosis after the surgery was poor with 1-2 months of life expectancy.
The 90-day inorganic mercury (II) treatment consisted of two 30-day treatment courses and one 30-day interval period. The formulation contained 1 mM mercury acetate in 20 mM sodium acetate buffer, pH 4.5, with 100 mM sucrose and 150 mM sodium chloride additives. The formulation was introduced orally to the pet three times a day 1 hour before food at 0.5 micromole Hg^2+/kg/day. In the beginning of treatment the dog had high levels of alkaline phosphatase (ALP) and alanine transferase (ALT), two liver enzymes known to be associated with liver tumor progression (de Oliveira e Silva et al., Arq Gastroenterol. 1990, 27(2):83-94). […] On Day 3 ALP and ALT were 1950 U/L and 119 U/L, respectively. On day 30 ALP dropped to 495 U/L, whereas ALT was decreased to 27 U/L. Decreases in ALP and ALT levels were correlated well with the improvement of dog's general condition during the first treatment course. During the second treatment course, according to owner's and veterinarian's notes, the dog continued to show improvement and at the end of the treatment period it acted as a healthy dog. Unfortunately, the owner chose not to take blood tests after day 30.

Question: How did the “health / cancer status of the dog” value (10 months after treatment) turn out when CC(=O)[O-].CC(=O)[O-].[Hg+2] [inorganic mercury (II), mercury acetate] was run?
Answer: remains in good health and is apparently cancer-free

Question: And the “ALT (SGPT)” value (Day 3)?
Answer: 119 U/L and 119 (H) U/L

Question: And the “AST (SGOT)” value (Day 3)?
Answer: 30 U/L

Question: And the Albumin (Day 3)?
Answer: 3.1 g/dL

Question: And the “Albumin/Globulin Ratio” value (Day 3)?
Answer: 1.1

Question: What about the “Alkaline Phosphatase (ALP)” value (Day 3) of the same compound?
Answer: 1950 U/L and 1950 (H) U/L

Question: What about the Amylase (Day 3) of the same compound?
Answer: 369 U/L

Question: What about the “BUN/Creatinine Ratio” value (Day 3) of the same compound?
Answer: 17

Question: What about the Bands (Day 3) of the same compound?
Answer: 0

Question: What about the “Basophils, absolute” value (Day 3) of the same compound?
Answer: 0

Question: What about the CPK (Day 3) of the same compound?
Answer: 161 U/L

Question: What about the Calcium (Day 3) of the same compound?
Answer: 9.4 mg/dL

Question: What about the Chloride (Day 3) of the same compound?
Answer: 114 mE/L

Question: And the Cholesterol (Day 3)?
Answer: 250 mg/dL

Question: And the “Corrected Calcium” value (Day 3)?
Answer: 9.8

Question: And the Creatinine (Day 3)?
Answer: 1.0 mg/dL

Question: What about the “Eosinophils, (%)” value (Day 3) of the same compound?
Answer: 7%

Question: What about the “Eosinophils, absolute” value (Day 3) of the same compound?
Answer: 812

Question: What about the Globulin (Day 3) of the same compound?
Answer: 2.8 g/dL

Question: And the Glucose (Day 3)?
Answer: 94 mg/dL

Question: What about the Hematocrit (Day 3) of the same compound?
Answer: 43.1%

Question: And the Hemoglobin (Day 3)?
Answer: 14.7 g/dL

Question: And the “Lymphocytes, (%)” value (Day 3)?
Answer: 18%

Question: What about the “Lymphocytes, absolute” value (Day 3) of the same compound?
Answer: 2088

Question: And the MCH (Day 3)?
Answer: 22.3

Question: And the MCHC (Day 3)?
Answer: 34.1

Question: What about the MCV (Day 3) of the same compound?
Answer: 65

Question: What about the “Monocytes, (%)” value (Day 3) of the same compound?
Answer: 4%

Question: What about the “Monocytes, absolute” value (Day 3) of the same compound?
Answer: 464

Question: What about the “Neutrophils, (%)” value (Day 3) of the same compound?
Answer: 71%

Question: What about the “Neutrophils, absolute” value (Day 3) of the same compound?
Answer: 8236

Question: And the Phosphorus (Day 3)?
Answer: 3.8 mg/dL

Question: What about the Platelet count (Day 3) of the same compound?
Answer: 394 10^3/microl

Question: What about the Potassium (Day 3) of the same compound?
Answer: 4.5 mE/L

Question: What about the RBC (Day 3) of the same compound?
Answer: 6.59 10^6/microl

Question: What about the Sodium (Day 3) of the same compound?
Answer: 149 mE/L

Question: And the “Total Billirubin” value (Day 3)?
Answer: 0.1 mg/dL

Question: What about the “Total Protein” value (Day 3) of the same compound?
Answer: 5.9 g/dL

Question: What about the “Urea Nitrogen” value (Day 3) of the same compound?
Answer: 17 mg/dL

Question: And the WBC (Day 3)?
Answer: 11.6 10^3/microl

Question: What about the “ALT (SGPT)” value (Day 9) of the same compound?
Answer: 51 U/L

Question: And the “AST (SGOT)” value (Day 9)?
Answer: 18 U/L

Question: What about the Albumin (Day 9) of the same compound?
Answer: 3.2 g/dL

Question: And the “Albumin/Globulin Ratio” value (Day 9)?
Answer: 1.1

Question: What about the “Alkaline Phosphatase (ALP)” value (Day 9) of the same compound?
Answer: 1368 (H) U/L

Question: What about the Amylase (Day 9) of the same compound?
Answer: 348 U/L

Question: What about the “BUN/Creatinine Ratio” value (Day 9) of the same compound?
Answer: 8

Question: And the Bands (Day 9)?
Answer: 0

Question: And the “Basophils, absolute” value (Day 9)?
Answer: 0

Question: And the CPK (Day 9)?
Answer: 119 U/L

Question: And the Calcium (Day 9)?
Answer: 9.8 mg/dL

Question: And the Chloride (Day 9)?
Answer: 115 mE/L

Question: And the Cholesterol (Day 9)?
Answer: 237 mg/dL

Question: What about the “Corrected Calcium” value (Day 9) of the same compound?
Answer: 10.1

Question: And the Creatinine (Day 9)?
Answer: 1.0 mg/dL

Question: And the “Eosinophils, (%)” value (Day 9)?
Answer: 3%

Question: And the “Eosinophils, absolute” value (Day 9)?
Answer: 405

Question: What about the Globulin (Day 9) of the same compound?
Answer: 3.0 g/dL

Question: What about the Glucose (Day 9) of the same compound?
Answer: 93 mg/dL

Question: What about the Hematocrit (Day 9) of the same compound?
Answer: 53.1%

Question: And the Hemoglobin (Day 9)?
Answer: 17.4 g/dL

Question: And the “Lymphocytes, (%)” value (Day 9)?
Answer: 15%

Question: And the “Lymphocytes, absolute” value (Day 9)?
Answer: 2025

Question: And the MCH (Day 9)?
Answer: 21.8

Question: And the MCHC (Day 9)?
Answer: 32.8

Question: What about the MCV (Day 9) of the same compound?
Answer: 67

Question: What about the “Monocytes, (%)” value (Day 9) of the same compound?
Answer: 3%

Question: And the “Monocytes, absolute” value (Day 9)?
Answer: 405

Question: What about the “Neutrophils, (%)” value (Day 9) of the same compound?
Answer: 79%

Question: What about the “Neutrophils, absolute” value (Day 9) of the same compound?
Answer: 10665

Question: And the Phosphorus (Day 9)?
Answer: 3.8 mg/dL

Question: What about the Platelet count (Day 9) of the same compound?
Answer: 406 (H) 10^3/microl

Question: What about the Potassium (Day 9) of the same compound?
Answer: 4.7 mE/L

Question: What about the RBC (Day 9) of the same compound?
Answer: 7.97 10^6/microl

Question: What about the Sodium (Day 9) of the same compound?
Answer: 152 mE/L

Question: What about the “Total Billirubin” value (Day 9) of the same compound?
Answer: 0.1 mg/dL

Question: What about the “Total Protein” value (Day 9) of the same compound?
Answer: 6.2 g/dL

Question: And the “Urea Nitrogen” value (Day 9)?
Answer: 8 mg/dL

Question: What about the WBC (Day 9) of the same compound?
Answer: 13.5 10^3/microl

Question: And the “ALT (SGPT)” value (Day 30)?
Answer: 27 U/L

Question: And the “AST (SGOT)” value (Day 30)?
Answer: 26 U/L

Question: And the Albumin (Day 30)?
Answer: 3.4 g/dL

Question: What about the “Albumin/Globulin Ratio” value (Day 30) of the same compound?
Answer: 1.1

Question: What about the “Alkaline Phosphatase (ALP)” value (Day 30) of the same compound?
Answer: 495 U/L and 495 (H) U/L

Question: What about the Amylase (Day 30) of the same compound?
Answer: 349 U/L

Question: What about the “BUN/Creatinine Ratio” value (Day 30) of the same compound?
Answer: 16

Question: What about the Bands (Day 30) of the same compound?
Answer: 0

Question: And the “Basophils, absolute” value (Day 30)?
Answer: 0

Question: What about the CPK (Day 30) of the same compound?
Answer: 488 U/L

Question: What about the Calcium (Day 30) of the same compound?
Answer: 10.3 mg/dL

Question: And the Chloride (Day 30)?
Answer: 117 mE/L

Question: And the Cholesterol (Day 30)?
Answer: 248 mg/dL

Question: What about the “Corrected Calcium” value (Day 30) of the same compound?
Answer: 10.4

Question: What about the Creatinine (Day 30) of the same compound?
Answer: 0.9 mg/dL

Question: What about the “Eosinophils, (%)” value (Day 30) of the same compound?
Answer: 6%

Question: And the “Eosinophils, absolute” value (Day 30)?
Answer: 504

Question: What about the Globulin (Day 30) of the same compound?
Answer: 3.0 g/dL

Question: And the Glucose (Day 30)?
Answer: 113 mg/dL

Question: And the Hematocrit (Day 30)?
Answer: 50.3%

Question: What about the Hemoglobin (Day 30) of the same compound?
Answer: 15.8 g/dL

Question: And the “Lymphocytes, (%)” value (Day 30)?
Answer: 17%

Question: What about the “Lymphocytes, absolute” value (Day 30) of the same compound?
Answer: 1428

Question: What about the MCH (Day 30) of the same compound?
Answer: 20.9

Question: What about the MCHC (Day 30) of the same compound?
Answer: 31.4

Question: What about the MCV (Day 30) of the same compound?
Answer: 66

Question: What about the “Monocytes, (%)” value (Day 30) of the same compound?
Answer: 4%

Question: And the “Monocytes, absolute” value (Day 30)?
Answer: 336

Question: What about the “Neutrophils, (%)” value (Day 30) of the same compound?
Answer: 73%

Question: What about the “Neutrophils, absolute” value (Day 30) of the same compound?
Answer: 6132

Question: What about the Phosphorus (Day 30) of the same compound?
Answer: 3.3 mg/dL

Question: What about the Platelet count (Day 30) of the same compound?
Answer: 385 10^3/microl

Question: And the Potassium (Day 30)?
Answer: 4.1 mE/L

Question: And the RBC (Day 30)?
Answer: 7.57 10^6/microl

Question: What about the Sodium (Day 30) of the same compound?
Answer: 152 mE/L

Question: What about the “Total Billirubin” value (Day 30) of the same compound?
Answer: 0.1 mg/dL

Question: What about the “Total Protein” value (Day 30) of the same compound?
Answer: 6.4 g/dL

Question: What about the “Urea Nitrogen” value (Day 30) of the same compound?
Answer: 14 mg/dL

Question: What about the WBC (Day 30) of the same compound?
Answer: 8.4 10^3/microl

Question: What about the “levels of ALP and ALT” value (during the first treatment course) of the same compound?
Answer: dramatically decreased
